According to ChEMBL document CHEMBL1140732, “2-(3-aryl-3-oxopropen-1-yl)-9-tert-butyl-paullones: a new antileishmanial chemotype” (J Med Chem, 2008):

Legend:
THP-1 [1] = test: Toxicity against human THP1 cells at 5 uM by alamar blue viability assay; conditions: thp-1, 5 µM
Leishmania donovani [2] = test: microbe, parasite or virus in culture; assay type: functional; conditions: 1S-C12d
Description: Antileishmanial activity against Leishmania donovani MHOM/SD/1962/1S-C12d axenic amastigotes by alamar blue viability assay

Leishmania donovani [3] = test: microbe, parasite or virus in culture; assay type: functional; conditions: 1S-C12d, THP-1
Description: Growth inhibition of Leishmania donovani MHOM/SD/1962/1S-C12d axenic amastigotes in infected THP1 macrophages at 5 uM by alamar blue viability assay

Leishmania donovani [4] = test: microbe, parasite or virus in culture; assay type: functional; conditions: 1S-C12d; remark: listed apart in the source
Description: Antileishmanial activity against Leishmania donovani MHOM/SD/1962/1S-C12d axenic amastigotes at 15 uM by alamar blue viability assay

Leishmania donovani [5] = test: Growth inhibition of Leishmania donovani MHOM/SD/1962/1S-C12d […] amastigotes in infected THP1 macrophages at 1 uM by alamar blue viability assay; assay type: functional; conditions: THP-1
THP-1 [6] = test: Toxicity against human THP1 cells at 1 uM by alamar blue viability assay; assay type: cell-based; conditions: thp-1, 1 µM
[7] = Inhibition of fumarate reductase in crude mitochondria fraction of Leishmania major promastigotes
[8] = Inhibition of fumarate reductase in permeabilized Leishmania major promastigotes
Leishmania donovani [9] = test: Inhibition of Leishmania donovani infection in mouse macrophages; assay type: functional; conditions: read-out: ED50 (the source's name)
[10] = Toxicity against mouse macrophages at 10 uM; assay type: cell-based; conditions: macrophage

Row | IC50 [7] [nM] | IC50 [8] [nM] | EC50 (Leishmania donovani [9]) [µM] | Structure (SMILES) | Activity (THP-1 [1]) [%] | GI50 (Leishmania donovani [2]) [nM] | inhibition at 5 µM (Leishmania donovani [3]) [%] | inhibition at 15 µM (Leishmania donovani [4]) [%] | inhibition at 1 µM (Leishmania donovani [5]) [%] | Activity (THP-1 [6]) [%] | Activity [10]
1 |  |  |  | CC(=O)/C=C/c1ccc2c(c1)-c1[nH]c3ccc(C)cc3c1CC(=O)N2 | 0 | 12000 | 0 | 65.2 |  |  | 
2 |  |  |  | CC(=O)/C=C/c1ccc2c(c1)-c1[nH]c3ccc(C#N)cc3c1CC(=O)N2 | 48 |  | 0 | 9.8 |  |  | 
3 |  |  |  | CC(=O)/C=C/c1ccc2c(c1)-c1[nH]c3ccc(C(C)(C)C)cc3c1CC(=O)N2 | 62 | 2800 | 56.2 | 99 |  |  | 
4 |  |  |  | O=C1Cc2c([nH]c3ccccc23)-c2cc(/C=C/C(=O)c3ccccc3)ccc2N1 | 0 | 5000 | 0 | 99.6 |  |  | 
5 |  |  |  | Cc1ccc2[nH]c3c(c2c1)CC(=O)Nc1ccc(/C=C/C(=O)c2ccc(Cl)cc2)cc1-3 | 0 |  | 0 | 17.4 |  |  | 
6 |  |  |  | CC(C)(C)c1ccc2[nH]c3c(c2c1)CC(=O)Nc1ccc(/C=C/C(=O)c2ccccc2)cc1-3 | 0 | 1100 | 61.8 | 99 |  |  | 
7 |  |  |  | COc1ccc(C(=O)/C=C/c2ccc3c(c2)-c2[nH]c4ccc(C(C)(C)C)cc4c2CC(=O)N3)cc1 | 0 | 1200 | 71.7 | 97.5 |  |  | 
8 |  |  |  | CC(C)(C)c1ccc2[nH]c3c(c2c1)CC(=O)Nc1ccc(/C=C/C(=O)c2ccc(Cl)cc2)cc1-3 | 0 | 1200 | 76.8 | 98.3 |  |  | 
9 |  |  |  | CC(C)(C)c1ccc2[nH]c3c(c2c1)CC(=O)Nc1ccc(/C=C/C(=O)c2ccco2)cc1-3 | 3.3 | 760 | 76.2 | 97.6 |  |  | 
10 |  |  |  | CC(C)(C)c1ccc2[nH]c3c(c2c1)CC(=O)Nc1ccc(/C=C/C(=O)c2cccnc2)cc1-3 | 0 | 780 | 76.2 | 98.1 |  |  | 
11 |  |  |  | COc1cc(C(=O)/C=C/c2ccc3c(c2)-c2[nH]c4ccc(C(C)(C)C)cc4c2CC(=O)N3)cc(OC)c1OC | 92.7 | 1100 | 99.2 | 96.8 |  |  | 
12 |  |  |  | COc1ccc(OC)c(C(=O)/C=C/c2ccc3c(c2)-c2[nH]c4ccc(C(C)(C)C)cc4c2CC(=O)N3)c1 | 95.7 | 1100 | 93.8 | 96.8 |  |  | 
13 |  |  |  | COc1ccc(C(=O)/C=C/c2ccc3c(c2)-c2[nH]c4ccc(C(C)(C)C)cc4c2CC(=O)N3)c(OC)c1 | 0 | 840 | 85.6 | 93.6 |  |  | 
14 |  |  |  | COc1ccc(C(=O)/C=C/c2ccc3c(c2)-c2[nH]c4ccc(C(C)(C)C)cc4c2CC(=O)N3)cc1OC | 49.7 | 1000 | 86 | 95.5 |  |  | 
15 |  |  |  | CC(=O)/C=C/c1ccc2c(c1)-c1[nH]c3ccccc3c1CC(=O)N2 | 0 | 3400 | 11.4 | 98.7 |  |  | 
16 |  |  |  | CC(=O)/C=C/c1ccc2c(c1)-c1[nH]c3ccc(F)cc3c1CC(=O)N2 | 0 |  | 0 | 45.4 |  |  | 
17 |  |  |  | CC(C)(C)c1ccc2[nH]c3c(c2c1)CC(=O)Nc1ccc(/C=C/C(=O)c2cccs2)cc1-3 | 60.5 | 1000 | 79.3 | 98.8 |  |  | 
18 |  |  |  | CC(C)(C)c1ccc2[nH]c3c(c2c1)CC(=O)Nc1ccc(/C=C/C(=O)c2ccc(O)cc2)cc1-3 | 80.3 | 3000 | 54.8 | 97.2 |  |  | 
19 |  |  |  | CC(C)(C)c1ccc2[nH]c3c(c2c1)CC(=O)Nc1ccc(/C=C/C#N)cc1-3 | 0 | 3600 | 47.3 | 63.8 |  |  | 
20 |  |  |  | CC(C)(C)c1ccc2[nH]c3c(c2c1)CC(=O)Nc1ccc(C#Cc2ccccc2)cc1-3 | 9 | 860 | 72 | 79.6 |  |  | 
21 |  |  |  | COc1ccc(C(=O)/C=C/c2ccc(NC(C)=O)cc2)cc1 |  |  |  | 69.6 |  |  | 
22 |  |  |  | C[C@@H]1[C@H](O)[C@@H](C)/C=C/C=C/C=C/C=C/C=C/C=C/C=C/[C@H](O[C@@H]2O[C@H](C)[C@@H](O)[C@H](N)[C@@H]2O)C[C@@H]2O[C@](O)(C[C@@H](O)C[C@@H](O)[C@H](O)CC[C@@H](O)C[C@@H](O)CC(=O)O[C@H]1C)C[C@H](O)[C@H]2C(=O)O (stereo in doubt) [AMPHOTERICIN B] |  |  |  |  | > 90 | > 90 | 
23 | 1400 | 1200 |  | C=CC(C)(C)c1cc(/C=C/C(=O)c2ccc(O)cc2)c(OC)cc1O [LICOAGROCHACONE A] |  |  |  |  |  |  | 
24 |  |  | 19.6 | N#Cc1ccc2[nH]c3c(c2c1)CC(=O)Nc1ccccc1-3 [PAULLONE 2] |  |  |  |  |  |  | Toxic
